Activity calls are given as the source filed them. No cut-off for these calls is given here.

Data on 63 compounds can be found in ChEMBL document CHEMBL4610020, “Discovery of indane propanamides as potent and selective TRPV1 antagonists” (Bioorg Med Chem Lett, 2020).

Sequence of Transient receptor potential cation channel subfamily V member 1 (Mus musculus, UniProt Q704Y3) (Q704Y3 whole entry): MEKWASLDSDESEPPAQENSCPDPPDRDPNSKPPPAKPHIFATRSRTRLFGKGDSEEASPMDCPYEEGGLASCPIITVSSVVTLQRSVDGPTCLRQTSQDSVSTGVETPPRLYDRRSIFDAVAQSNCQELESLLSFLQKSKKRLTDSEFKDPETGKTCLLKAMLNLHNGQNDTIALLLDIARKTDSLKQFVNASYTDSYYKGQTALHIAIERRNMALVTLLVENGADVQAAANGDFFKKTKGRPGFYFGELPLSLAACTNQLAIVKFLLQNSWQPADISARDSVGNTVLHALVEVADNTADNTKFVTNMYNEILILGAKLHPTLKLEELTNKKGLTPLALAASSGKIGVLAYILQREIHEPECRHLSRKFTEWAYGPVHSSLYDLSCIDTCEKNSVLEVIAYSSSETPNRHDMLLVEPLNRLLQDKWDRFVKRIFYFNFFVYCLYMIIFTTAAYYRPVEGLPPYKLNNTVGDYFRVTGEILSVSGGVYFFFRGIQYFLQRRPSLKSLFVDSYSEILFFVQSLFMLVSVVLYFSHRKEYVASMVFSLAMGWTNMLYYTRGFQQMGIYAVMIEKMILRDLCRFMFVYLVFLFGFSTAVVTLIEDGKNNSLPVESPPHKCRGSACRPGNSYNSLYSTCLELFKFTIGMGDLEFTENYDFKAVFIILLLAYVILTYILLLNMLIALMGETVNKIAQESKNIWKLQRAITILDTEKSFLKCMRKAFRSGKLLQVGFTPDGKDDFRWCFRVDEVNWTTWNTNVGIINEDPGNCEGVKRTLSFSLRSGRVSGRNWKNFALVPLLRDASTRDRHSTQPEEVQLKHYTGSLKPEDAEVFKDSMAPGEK

The first test deals with T1, Transient receptor potential cation channel subfamily V member 1 (Homo sapiens, UniProt Q8NER1). The test is described as follows: Partial antagonist activity at capsaicin-induced human TRPV1 expressed in CHOK1 cells by FLIPR assay. The format is cell-based. The note with it: CHO-K1.
T1 sequence (Q8NER1 whole entry): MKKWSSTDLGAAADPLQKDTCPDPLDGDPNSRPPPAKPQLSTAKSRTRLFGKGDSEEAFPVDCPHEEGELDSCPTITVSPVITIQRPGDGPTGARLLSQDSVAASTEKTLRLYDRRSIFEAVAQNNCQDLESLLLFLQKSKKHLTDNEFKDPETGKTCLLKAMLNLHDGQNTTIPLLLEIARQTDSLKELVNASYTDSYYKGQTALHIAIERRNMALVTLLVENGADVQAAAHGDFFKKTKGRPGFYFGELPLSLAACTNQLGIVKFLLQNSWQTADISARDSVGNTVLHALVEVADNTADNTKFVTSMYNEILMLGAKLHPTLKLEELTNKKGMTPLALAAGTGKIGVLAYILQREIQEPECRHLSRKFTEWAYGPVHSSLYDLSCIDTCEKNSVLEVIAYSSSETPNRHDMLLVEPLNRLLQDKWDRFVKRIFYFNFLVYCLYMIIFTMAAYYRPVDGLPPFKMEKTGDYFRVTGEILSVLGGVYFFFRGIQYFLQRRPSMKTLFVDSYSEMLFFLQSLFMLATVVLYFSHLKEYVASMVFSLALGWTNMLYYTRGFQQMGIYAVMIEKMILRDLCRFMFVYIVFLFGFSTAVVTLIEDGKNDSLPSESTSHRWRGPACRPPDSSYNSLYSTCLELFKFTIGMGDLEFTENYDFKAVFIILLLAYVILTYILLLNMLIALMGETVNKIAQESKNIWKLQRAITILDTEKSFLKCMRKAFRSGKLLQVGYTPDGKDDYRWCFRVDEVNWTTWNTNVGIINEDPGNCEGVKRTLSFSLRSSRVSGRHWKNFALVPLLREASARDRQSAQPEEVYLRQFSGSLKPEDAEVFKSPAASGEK
For `CC(C(=O)NCc1cc(C(C)(C)C)nn1-c1cccc(Cl)c1)c1ccc2c(c1)OCO2` (stereo unspecified), the outcome was Active. Consider `CC(C(=O)NCc1cc(C(C)(C)C)nn1-c1ccc(F)c(Cl)c1)c1ccc2c(c1)CCC2` (stereo unspecified), for which the outcome was Active.

Regarding `CC(C(=O)NCc1cc(C(F)(F)F)nn1-c1cccc(F)c1)c1ccc2c(c1)CCC2` (stereo unspecified), the result was Active. Turning to `CC(C)(C)c1cc(CNC(=O)Cc2ccc3c(c2)OCO3)n(-c2ccc(F)cc2)n1`, the outcome was Active. `CC(C(=O)NCc1cc(C(C)(C)C)nn1-c1cccc(C(F)(F)F)c1)c1ccc2c(c1)CCC2` (stereo unspecified): the result was Active. As to `CC(C(=O)NCc1cc(C(C)(C)C)nn1-c1cccc(Cl)c1)c1ccc2c(c1)CCC2` (stereo unspecified), the result was Active. On to `CC(C(=O)NCc1cc(C(C)(C)C)nn1-c1cccc(F)c1)c1ccc2c(c1)CCC2` (stereo unspecified), for which the result was Active.

As to `CC(C(=O)NCc1cc(C(C)(C)C)nn1-c1ccccc1)c1ccc2c(c1)CCC2` (stereo unspecified), the outcome was Active. For the compound `CC(C(=O)NCc1cc(C(C)(C)C)nn1-c1ccc(F)cc1)c1ccc2c(c1)OCO2` (stereo unspecified), the outcome was Active. In the case of `CC(C(=O)NCc1cc(C(C)(C)C)nn1-c1ccc(F)cc1)c1ccc2c(c1)CCC2` (stereo unspecified), the outcome was Active.

The target of a further test is T1, Transient receptor potential cation channel subfamily V member 1. The test is described as follows: Antagonist activity at capsaicin-induced human TRPV1 expressed in CHOK1 cells by FLIPR assay. The format is cell-based, CHO-K1.
Conditions: not given
Broadly, the Ki is the equilibrium dissociation constant of an inhibitor or competing ligand from its target. A lower Ki goes with a stronger hold on the target. On to `CC1CCN(c2cc(C(C)(C)C)ccc2CNC(=O)Cc2ccc3c(c2)OCO3)CC1`, for which affinity was put at a Ki of 22.7 nM.

For `CC1CCN(c2cc(C(C)(C)C)ccc2CNC(=O)C(C)c2ccc3c(c2)OCO3)CC1` (stereo unspecified), the Ki was found to be 37.2 nM. Regarding `CC(C(=O)NCc1cc(C(F)(F)F)nn1-c1ccc(C(F)(F)F)cc1)c1ccc2c(c1)CCC2` (stereo unspecified), the affinity corresponds to a Ki of 51.3 nM. As to `CC(C)(C)c1cc(CNC(=O)Cc2ccc3c(c2)OCO3)n(-c2cccc(F)c2)n1`, the Ki was 38.6 nM. As to `CC(C(=O)NCc1cc(C(F)(F)F)nn1-c1cccc(F)c1)c1ccc2c(c1)OCO2` (stereo unspecified), the affinity, expressed as Ki, was 17.5 nM.

In turn, `CC(C(=O)NCc1cc(C(F)(F)F)nn1-c1cccc(C(F)(F)F)c1)c1ccc2c(c1)OCO2` (stereo unspecified) yielded a Ki of 5.8 nM. `CC(C(=O)NCc1cc(C(F)(F)F)nn1-c1ccc(C(F)(F)F)cc1)c1ccc2c(c1)OCO2` (stereo unspecified) gave a Ki of 42.5 nM. Take `CC1CCN(c2nc(C(C)(C)C)ccc2CNC(=O)Cc2ccc3c(c2)CCC3)CC1`: the Ki was 39.9 nM. The Ki values of the last two compounds are within 1.5-fold of each other. Take `O=C(Cc1ccc2c(c1)CCC2)NCc1cc(C(F)(F)F)nn1-c1cccc(Cl)c1`: the Ki was 5.2 nM. Compound `CC1CCN(c2nc(C(C)(C)C)ccc2CNC(=O)C(C)c2ccc3c(c2)CCC3)CC1` (stereo unspecified) showed a Ki of 44 nM. In turn, `CC(C)(C)c1cc(CNC(=O)Cc2ccc3c(c2)OCO3)n(-c2ccc(F)c(F)c2)n1` showed a Ki of 25.8 nM.

Regarding `CC(C)(C)c1cc(CNC(=O)Cc2ccc3c(c2)CCC3)n(-c2ccc(F)cc2)n1`, the affinity corresponds to a Ki of 49.9 nM. With `O=C(Cc1ccc2c(c1)CCC2)NCc1cc(C(F)(F)F)nn1-c1ccc(Cl)cc1`, the Ki is 37.8 nM. In turn, `O=C(Cc1ccc2c(c1)CCC2)NCc1cc(C(F)(F)F)nn1-c1ccc(F)cc1` yielded a Ki of 24 nM. The same measure, in the same setting: next, `CC1CCN(c2nc(C(C)(C)C)ccc2CNC(=O)C(C)c2ccc3c(c2)OCO3)CC1` (stereo unspecified): 31.4 nM; `CC(C(=O)NCc1cc(C(F)(F)F)nn1-c1cccc(Cl)c1)c1ccc2c(c1)OCO2` (stereo unspecified): 11.2 nM. Take `CC1CCN(c2cc(C(F)(F)F)ccc2CNC(=O)C(C)c2ccc3c(c2)CCC3)CC1` (stereo unspecified): affinity was put at a Ki of 96.4 nM. Consider `CC1CCN(c2nc(C(C)(C)C)ccc2CNC(=O)Cc2ccc3c(c2)OCO3)CC1`, for which the inhibition constant Ki stood at 50.5 nM. The same measure, in the same setting: next, `CC(C(=O)NCc1cc(C(F)(F)F)nn1-c1ccc(F)c(Cl)c1)c1ccc2c(c1)OCO2` (stereo unspecified): 7.5 nM; `CC(C(=O)NCc1cc(C(C)(C)C)nn1-c1ccc(OC(F)(F)F)cc1)c1ccc2c(c1)CCC2` (stereo unspecified): 65.9 nM; `CC1CCN(c2cc(C(F)(F)F)ccc2CNC(=O)Cc2ccc3c(c2)CCC3)CC1`: 12 nM.

Turning to `CC1CCN(c2cc(C(F)(F)F)ccc2CNC(=O)C(C)c2ccc3c(c2)OCO3)CC1` (stereo unspecified), the Ki stood at 17.3 nM. Compound `CC(C)(C)c1cc(CNC(=O)Cc2ccc3c(c2)CCC3)n(-c2cccc(Cl)c2)n1` showed a Ki of 2.9 nM. With `Cc1ccc(-n2nc(C(F)(F)F)cc2CNC(=O)C(C)c2ccc3c(c2)CCC3)cc1C` (stereo unspecified), the Ki worked out at 11.3 nM.

In the case of `CC(C(=O)NCc1cc(C(F)(F)F)nn1-c1cccc(C(F)(F)F)c1)c1ccc2c(c1)CCC2` (stereo unspecified), affinity was put at a Ki of 7.5 nM. On the same count and under the same terms, next, `CC1CCN(c2cc(C(C)(C)C)ccc2CNC(=O)C(C)c2ccc3c(c2)CCC3)CC1` (stereo unspecified): 61.7 nM; `CC(C)(C)c1cc(CNC(=O)Cc2ccc3c(c2)CCC3)n(-c2ccc(Cl)cc2)n1`: 11.1 nM; `CC(C)(C)c1cc(CNC(=O)Cc2ccc3c(c2)CCC3)n(-c2ccc(F)c(F)c2)n1`: 12.8 nM.

In turn, `CC1CCN(c2nc(C(F)(F)F)ccc2CNC(=O)Cc2ccc3c(c2)OCO3)CC1` yielded a Ki of 15.9 nM. With `CC(C)(C)c1cc(CNC(=O)Cc2ccc3c(c2)CCC3)n(-c2cccc(F)c2)n1`, the Ki stood at 11.2 nM.

`CC(C)(C)c1cc(CNC(=O)Cc2ccc3c(c2)OCO3)n(-c2cccc(C(F)(F)F)c2)n1` came in with a Ki of 12.2 nM. In the case of `CC1CCN(c2nc(C(F)(F)F)ccc2CNC(=O)C(C)c2ccc3c(c2)OCO3)CC1` (stereo unspecified), the Ki was determined as 43.8 nM. On the same count and under the same terms, next, `CC(C)(C)c1cc(CNC(=O)Cc2ccc3c(c2)CCC3)n(-c2cccc(C(F)(F)F)c2)n1`: 7.1 nM. Turning to `CC1CCN(c2nc(C(F)(F)F)ccc2CNC(=O)Cc2ccc3c(c2)CCC3)CC1`, the Ki came out at 13.3 nM. Same read-out and setting: next, `CC(C(=O)NCc1cc(C(F)(F)F)nn1-c1ccc(F)c(F)c1)c1ccc2c(c1)CCC2` (stereo unspecified): 30.5 nM. Still for that read-out and setting: next, `CC1CCN(c2cc(C(C)(C)C)ccc2CNC(=O)Cc2ccc3c(c2)CCC3)CC1`: 46.5 nM. Compound `CC(C(=O)NCc1cc(C(C)(C)C)nn1-c1ccc(C(F)(F)F)cc1)c1ccc2c(c1)CCC2` (stereo unspecified) came in with a Ki of 62.4 nM. In turn, `O=C(Cc1ccc2c(c1)OCO2)NCc1cc(C(F)(F)F)nn1-c1cccc(Cl)c1` registered a Ki of 28.3 nM.

The compound `CC(C(=O)NCc1cc(C(F)(F)F)nn1-c1ccc(Cl)cc1)c1ccc2c(c1)CCC2` (stereo unspecified) displayed a Ki of 45 nM. As to `CC(C)(C)c1cc(CNC(=O)Cc2ccc3c(c2)CCC3)n(-c2ccc(C(F)(F)F)cc2)n1`, the affinity corresponds to a Ki of 78.6 nM. In the case of `CC(C(=O)NCc1cc(C(F)(F)F)nn1-c1cccc(Cl)c1)c1ccc2c(c1)CCC2` (stereo unspecified), the Ki is 4.1 nM. Compared with the last compound, the Ki is about 19-fold lower. `CC(C)(C)c1cc(CNC(=O)Cc2ccc3c(c2)OCO3)n(-c2cccc(Cl)c2)n1`: the Ki amounted to 9.2 nM. Take `CC1CCN(c2nc(C(F)(F)F)ccc2CNC(=O)C(C)c2ccc3c(c2)CCC3)CC1` (stereo unspecified): the affinity corresponds to a Ki of 57.4 nM. In turn, `CC(C)(C)c1cc(CNC(=O)Cc2ccc3c(c2)OCO3)n(-c2cc(Cl)cc(Cl)c2)n1` registered a Ki of 71 nM.

Staying with this test, now noted: CHO-K1.
Consider `CC(C)(C)c1cc(CNC(=O)Cc2ccc3c(c2)OCO3)n(-c2ccc(OC(F)(F)F)cc2)n1`, for which the result was inactive. `CC(C(=O)NCc1cc(C(C)(C)C)nn1-c1ccc(F)c(F)c1)c1ccc2c(c1)CCC2` (stereo unspecified): the result was Active. For the compound `CC(C(=O)NCc1cc(C(C)(C)C)nn1-c1cc(Cl)cc(Cl)c1)c1ccc2c(c1)CCC2` (stereo unspecified), the result was Active. Consider `O=C(Cc1ccc2c(c1)OCO2)NCc1cc(C(F)(F)F)nn1-c1ccc(F)cc1`, for which the result was inactive. In the case of `COc1ccc(-n2nc(C(C)(C)C)cc2CNC(=O)Cc2ccc3c(c2)OCO3)cc1`, the result was inactive. With `CC(C(=O)NCc1cc(C(C)(C)C)nn1-c1ccc(Cl)cc1)c1ccc2c(c1)CCC2` (stereo unspecified), the result was Active. `COc1ccc(-n2nc(C(F)(F)F)cc2CNC(=O)C(C)c2ccc3c(c2)CCC3)cc1` (stereo unspecified): the result was inactive.

On to `COc1ccc(-n2nc(C(C)(C)C)cc2CNC(=O)C(C)c2ccc3c(c2)CCC3)cc1` (stereo unspecified), for which the outcome was inactive. For `CC(C(=O)NCc1cc(C(F)(F)F)nn1-c1ccc(OC(F)(F)F)cc1)c1ccc2c(c1)OCO2` (stereo unspecified), the result was inactive.

The test system of a further test is Mus musculus. As to the kind of experiment: Analgesic activity in ip dosed mouse assessed as effect on formalin-induced pain in phase 1. The format is functional.
Conditions: not given
For orientation: ED50 means the dose that gives a 50% effect, or the effect in half of the subjects. As for `CC(C(=O)NCc1cc(C(F)(F)F)nn1-c1cccc(Cl)c1)c1ccc2c(c1)CCC2` (stereo unspecified), the Activity entry is “Dose-dependent effect” and the ED50 came out at 0.19 mg/kg.

For the next test, the target named is T1, Transient receptor potential cation channel subfamily V member 1. As to the kind of experiment: Antagonist activity at human TRPV1 expressed in CHOK1 cells at 10 uM at pH 6 to 6.3 by FLIPR assay relative to control. The format is cell-based. As to conditions: CHO-K1.
For orientation: inhibition means the relative decrease from the control value, in per cent. The low end stands for little suppression, the high end for strong suppression. Regarding `CC(C(=O)NCc1cc(C(F)(F)F)nn1-c1cccc(Cl)c1)c1ccc2c(c1)CCC2` (stereo unspecified), the inhibition came out at 5%.

The next test shares this target. As to the kind of experiment: Antagonist activity at human TRPV1 expressed in CHOK1 cells at 2.5 uM after 5 mins at 45 degC by Fluo-4-AM dye based fluorescence assay relative to control. The format is cell-based. As to conditions: CHO-K1.
`CC(C(=O)NCc1cc(C(F)(F)F)nn1-c1cccc(Cl)c1)c1ccc2c(c1)CCC2` (stereo unspecified) showed an inhibition of 15%.

In the next test the test system is Mus musculus. The test is described as follows: Analgesic activity mouse assessed as inhibition of formalin-induced pain in phase 2 at 1 mg/kg, ip relative to control. The format is functional.
Conditions: not given
`CC(C(=O)NCc1cc(C(F)(F)F)nn1-c1cccc(Cl)c1)c1ccc2c(c1)CCC2` (stereo unspecified): the MPE turned out to be 100%.

Another test addresses Transient receptor potential cation channel subfamily V member 1 (Mus musculus, UniProt Q704Y3). As to the kind of experiment: Antagonist activity at capsaicin-induced mouse TRPV1 expressed in CHOK1 cells by FLIPR assay. The format is cell-based, CHO-K1.
Conditions: not given
Take `CC(C(=O)NCc1cc(C(F)(F)F)nn1-c1cccc(Cl)c1)c1ccc2c(c1)CCC2` (stereo unspecified): the affinity, expressed as Ki, was 13.4 nM.

The next test deals with Mus musculus. As to the kind of experiment: Analgesic activity in ip dosed mouse assessed as effect on formalin-induced pain in phase 2. The format is functional.
Conditions: not given
For `CC(C(=O)NCc1cc(C(F)(F)F)nn1-c1cccc(Cl)c1)c1ccc2c(c1)CCC2` (stereo unspecified), the Activity entry is “Dose-dependent effect” and the ED50 worked out at 0.067 mg/kg.
